# Results reported in patent US10184115B2, “Mutated cellobiose dehydrogenase with increased substrate specificity” (DIRECTSENS GMBH, priority 2012, dated 2019).
# Experiments:
# Type in all cases: biochemical
# [1] = biological target: T1, Corynascus thermophilus CDH flavodehydrogenase domain, recombinant wild type (wtDH), amino acids 249-787 of SEQ ID NO: 7 (Thermothelomyces fergusii, UniProt E7D6B9); experiment: Steady-state kinetics, DCIP assay: C. thermophilus flavodehydrogenase domain wt; conditions: apparent, pH 5.5, 30° C.
# T1 sequence (E7D6B9 249-787): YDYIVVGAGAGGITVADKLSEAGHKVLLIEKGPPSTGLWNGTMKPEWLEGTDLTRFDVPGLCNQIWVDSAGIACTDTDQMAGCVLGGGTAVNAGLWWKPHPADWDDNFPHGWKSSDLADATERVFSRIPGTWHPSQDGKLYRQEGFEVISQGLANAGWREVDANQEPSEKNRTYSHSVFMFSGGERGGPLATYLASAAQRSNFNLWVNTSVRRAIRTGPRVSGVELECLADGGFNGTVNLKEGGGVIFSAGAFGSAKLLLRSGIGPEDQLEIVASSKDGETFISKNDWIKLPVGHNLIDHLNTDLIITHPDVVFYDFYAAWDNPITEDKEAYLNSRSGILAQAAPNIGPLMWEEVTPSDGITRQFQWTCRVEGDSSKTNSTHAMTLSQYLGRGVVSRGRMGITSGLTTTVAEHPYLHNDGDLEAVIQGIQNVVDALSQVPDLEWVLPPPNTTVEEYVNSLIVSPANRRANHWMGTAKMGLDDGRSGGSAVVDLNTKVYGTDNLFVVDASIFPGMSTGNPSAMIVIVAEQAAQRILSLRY
# Experimental: (§1) Enzyme activity was assayed at 30° C. using either the DCIP (Karapetyan et al., 2005 Journal of Biotechnology 121: 34-48) or cytochrome c (Canevascini et al., 1991, European Journal of Biochemistry 198: 43-52) as electron acceptor. […] Stock solutions of carbohydrates used for kinetic measurements were prepared in the respective buffer and allowed to stand overnight for mutarotation, while stock solutions of electron acceptors were prepared in water and immediately used. The reaction stoichiometry is 1 for the two-electron acceptor DCIP (1 mole of DCIP reduced per mole of carbohydrate oxidized), but 2 for the one-electron acceptor cytochrome c. Kinetic constants were calculated by fitting the observed data to the Henri-Michaelis-Menten equation or to the adapted model for substrate inhibition using nonlinear least-squares regression and the program SigmaPlot (Systat Software, San Jose, Calif., USA).
# The construct was confirmed by sequencing.
# (§2) Recombinant wild-type CDH as well as variants were produced in 1 L baffled flasks. Precultures were grown overnight in 30 mL of YPD medium at 30° C. and 120 rpm. After approximately 18 hours the precultures were transferred into 1 L baffled flasks containing 200 mL BMGY medium without methanol. Induction with methanol was started immediately using a multichannel peristaltic pump (Minipuls Evolution, Gilson, Middleton, Wis., USA). Each flask was supplied eight times a day with methanol yielding a total concentration of 2% (v/v) methanol per day. Increase in activity was monitored using the DCIP and the cytochrome c enzyme assays. Cultivation was stopped at day five of methanol induction, cells removed by centrifugation (4000 rpm, 20 min) and the supernatant set to a final ammonium sulfate concentration of 20%.
# The sample was loaded on a 20 mL PHE Sepharose FF column (HR26/20) equilibrated with 50 mM Na-acetate buffer pH 5.5 containing 20% ammonium sulfate. Proteins were eluted by increasing the concentration of the elution buffer (50 mM Na-acetate buffer pH 5.5) from 0 to 100% in 5 column volumes and fractions containing CDH activity were pooled. After diafiltration with a polyethersulfone flat-stack cross flow module with a cut-off of 10 kDa (Viva Flow 50, Sartorius, Göttingen, Germany) until conductivity of 5 mS cm^−1 in 20 mM Na-acetate pH 5.5 the samples were loaded on a 20 mL Q-Source column (HR26/20) equilibrated with a 20 mM Na-acetate buffer pH 5.5. CDH was eluted by increasing the concentration of the elution buffer (50 mM Na-acetate buffer pH 5.5 containing 0.5 M NaCl) from 0 to 100% in 50 column volumes. Fractions were tested for CDH activity and pooled according to the highest Reinheitszahl (RZ, calculated from the absorbance ratio 420 nm/280 nm). […]
# [2] = biological target: Myriococcum thermophilum cellobiose dehydrogenase (CDH, SEQ ID NO: 1) variant C312Y/W316R (Thermothelomyces myriococcoides, UniProt A9XK88, C312Y/W316R); conditions: apparent, DCIP assay, pH 4.5, 30° C.; for kcat: ~ values only estimated by non linear regression
# Myriococcum thermophilum cellobiose dehydrogenase (CDH, SEQ ID NO: 1) variant C312Y/W316R, sequence (A9XK88 entry or part of it C312Y/W316R): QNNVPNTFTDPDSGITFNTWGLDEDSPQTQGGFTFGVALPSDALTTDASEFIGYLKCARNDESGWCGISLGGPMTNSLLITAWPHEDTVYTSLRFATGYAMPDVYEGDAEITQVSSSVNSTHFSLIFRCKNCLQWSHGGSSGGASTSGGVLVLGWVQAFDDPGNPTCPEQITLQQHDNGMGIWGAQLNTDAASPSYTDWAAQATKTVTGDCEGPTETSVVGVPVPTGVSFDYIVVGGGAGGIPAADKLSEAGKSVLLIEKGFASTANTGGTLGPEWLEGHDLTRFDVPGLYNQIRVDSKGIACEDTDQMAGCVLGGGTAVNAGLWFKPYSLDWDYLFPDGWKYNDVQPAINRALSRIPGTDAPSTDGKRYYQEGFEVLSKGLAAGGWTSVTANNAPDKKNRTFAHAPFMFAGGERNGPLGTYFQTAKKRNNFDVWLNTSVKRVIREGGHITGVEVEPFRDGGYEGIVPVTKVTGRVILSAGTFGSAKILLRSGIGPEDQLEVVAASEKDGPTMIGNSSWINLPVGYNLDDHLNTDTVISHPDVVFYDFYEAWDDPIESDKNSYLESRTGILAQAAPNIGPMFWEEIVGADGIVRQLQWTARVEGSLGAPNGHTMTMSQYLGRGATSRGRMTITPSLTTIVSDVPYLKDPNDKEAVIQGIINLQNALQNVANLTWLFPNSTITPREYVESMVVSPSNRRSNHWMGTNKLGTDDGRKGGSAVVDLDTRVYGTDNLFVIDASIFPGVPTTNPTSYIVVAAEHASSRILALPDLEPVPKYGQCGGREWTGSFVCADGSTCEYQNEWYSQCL
# Experimental: as §1
# (§3) The M. thermophilum CDH gene (EF492051, SEQ ID NO: 2) was codon-optimized for expression in Pichia pastoris according to the method described in Abad et al., 2010 and WO2010/097462 A1 (SEQ ID NO: 13) and synthesized by Gen-script (Piscataway, N.J., USA). cDNA encoding for M. thermophilum CDH was excised from the plasmid pMTSopt using EcoRI and NotI and cloned into the expression vector pPicZA along with its native signal sequence. Plasmid pCT1 was used as template for the amplification of the C. thermophilus CDH cDNA. Restriction enzymes BstBI and XbaI were used for cloning into the expression vector pPicZB along with its native signal sequence. Mutants of M. thermophilum CDH: C312Y, N313S, W316L, W316R, R622N, N721D, C312Y/W316L, C312Y/W316R and C. thermophiles CDH C310Y were prepared by a two step mutagenesis approach using PCR and DpnI (Li et al., 2002). […] SacI linearized expression plasmids were transformed into electrocompetent X-33 cells and transformants were selected on YPD Zeocin plates ([…]).
# as §2
# (§4) The sample was loaded on a 20 mL PHE Sepharose FF column (HR26/20) equilibrated with 50 mM Na-acetate buffer pH 5.5 containing 20% ammonium sulfate. Proteins were eluted by increasing the concentration of the elution buffer (50 mM Na-acetate buffer pH 5.5) from 0 to 100% in 5 column volumes and fractions containing CDH activity were pooled. After diafiltration with a polyethersulfone flat-stack cross flow module with a cut-off of 10 kDa (Viva Flow 50, Sartorius, Göttingen, Germany) until conductivity of 5 mS cm^−1 in 20 mM Na-acetate pH 5.5 the samples were loaded on a 20 mL Q-Source column (HR26/20) equilibrated with a 20 mM Na-acetate buffer pH 5.5. CDH was eluted by increasing the concentration of the elution buffer (50 mM Na-acetate buffer pH 5.5 containing 0.5 M NaCl) from 0 to 100% in 50 column volumes. Fractions were tested for CDH activity and pooled according to the highest Reinheitszahl (RZ, calculated from the absorbance ratio 420 nm/280 nm). Purified enzymes were concentrated and diafiltered in 50 mM citrate buffer, pH 5.5, aliquoted and kept at 4° C. for further use.
# [3] = biological target: Myriococcum thermophilum cellobiose dehydrogenase (CDH, SEQ ID NO: 1) variant C312Y (Thermothelomyces myriococcoides, UniProt A9XK88, C312Y); conditions: apparent, DCIP assay, pH 4.5, 30° C.
# Myriococcum thermophilum cellobiose dehydrogenase (CDH, SEQ ID NO: 1) variant C312Y, sequence (A9XK88 entry or part of it C312Y): as the sequence (A9XK88 entry or part of it C312Y/W316R) above, with R295W counted along it
# Experimental: as §1, §3, §2, §4
# [4] = biological target: Myriococcum thermophilum cellobiose dehydrogenase (CDH, SEQ ID NO: 1) variant C312Y/W316L (Thermothelomyces myriococcoides, UniProt A9XK88, C312Y/W316L); conditions: apparent, DCIP assay, pH 4.5, 30° C.; for kcat: ~ values only estimated by non linear regression
# Myriococcum thermophilum cellobiose dehydrogenase (CDH, SEQ ID NO: 1) variant C312Y/W316L, sequence (A9XK88 entry or part of it C312Y/W316L): as the sequence (A9XK88 entry or part of it C312Y/W316R) above, with R295L counted along it
# Experimental: as §1, §3, §2, §4
SMILES,kcat [1] [s⁻¹],kcat/KM [1] [M⁻¹ s⁻¹],kcat/KM [2] [M⁻¹ s⁻¹],kcat [2] [s⁻¹],kcat [3] [s⁻¹],kcat/KM [3] [M⁻¹ s⁻¹],kcat/KM [4] [M⁻¹ s⁻¹],kcat [4] [s⁻¹]
"OC[C@H]1OC(O)[C@H](O)[C@@H](O)[C@@H]1O (stereo partly shown) [Glucose, glucose]",8.8,79.1,6.2,4.3,9.6,50,13,6.4
"OC[C@H]1O[C@H](O[C@H]2[C@H](O)[C@@H](O)C(O)O[C@@H]2CO)[C@H](O)[C@@H](O)[C@@H]1O (stereo partly shown) [Maltose, maltose]",0.86,296,0.17,~2.7,0.48,3.5,0.62,~0.92
